Data on one compound can be found in PMC6831561, “Pharmacological and Behavioral Effects of the Synthetic Cannabinoid AKB48 in Rats” (Frontiers in Neuroscience, 2019).

One data set concerns hepatocyte model. Particulars: ref Gandhi et al., 2013; cited from earlier work.
A short description of data set [1]: AKB48 plasma pharmacokinetics (LC-MS/MS). Type of data set: in vivo, rats. The settings on record: for Tmax: male, Sprague-Dawley, rat, plasma, ip, read-out: time to peak plasma concentration (converted). The procedure:
To correlate the pharmacological effects of AKB48 with its blood levels, we measured somatosensory responses (visual, acoustic, and tactile), body temperature, and mechanical analgesia in rats at timed intervals post-AKB48 injection (for behavioral tests, see before), while simultaneously obtaining serial blood specimens for analysis of AKB48.
Sixteen male Sprague-Dawley rats were used in the study. Rats were anaesthetized with Equitesin [3 mL/kg intraperitoneal (ip); chloral hydrate 2.1 g, sodium pentobarbital 0.46 g, MgSO 1.06 g, propylene glycol 21.4 mL, ethanol (90%) 5.7 mL, H2O 3 mL] and implanted in the right jugular vein with a catheter, consisting of medical-grade tubing (Silastic, Dow Corning Corporation, MI, United States) according to the technique previously described ([Lecca et al., 2006]). A stable fixation in the mid-scapular region of the back was embedded by a polypropylene mesh (Evolution, BULEV, weight 48 g/mq, Dipromed, Italy). During the recovery period, at least 7 days after surgery, the catheters were flushed daily with 0.1 mL of gentamicin (40 mg/mL) and with heparinized saline (heparin 250 U/mL in 0.9% sterile saline). Fifteen days after recovery from surgery, rats were trained in handling, behavioral tests, and withdrawing blood from the catheter. Four groups of rats (n = 4) randomly received intraperitoneal injection of a single dose of AKB48 (0.1, 0.3, 0.5, or 3.0 mg/kg), and behavioral tests were conducted as previously reported in safety pharmacology studies (see before). Blood specimens (300 μL) were withdrawn via catheters immediately before the behavioral measurements (T = 0) and at 20, 40, 70, 140, and 195 min after drug injection. Blood specimens were collected into 1–mL vials containing sodium fluoride (4 mg/mL of blood) as preservative and anticoagulant. After each blood withdrawal, an equal volume of saline solution was infused via the intravenous catheter to maintain volume and osmotic homeostasis.
A dispersive liquid-liquid microextraction (DLLME) was performed for sample purification. Three hundred microliter of blood samples were spiked with 10 μL of JWH-209 D9 as an internal standard, achieving the final concentration of 20 ng/mL, and deproteinized with 500 μL of methanol. The sample was centrifuged at 10,000 rpm for 10 min, and 500 μL surnatant was transferred into a 15 mL conical tube containing 1 mL of water, 0.2 g of NaCl, and 100 μL of carbonate buffer, pH 9. In order to obtain the formation of the cloudy solution, 350 μL of a mixture, chloroform/methanol 1:2.5, respectively the extractant and the disperser solvent, was rapidly added to obtain the formation of a turbid mixture. […]

For another data set, the system named is extracellular DA levels. The data set is described as follows: In vivo brain microdialysis of DA (NAc shell, NAc core, mPFC). The arrangement: species or system rats. From the text:
Male Sprague-Dawley rats were anaesthetized with isoflurane gas, and maintained under anaesthesia using a breathing tube under a scavenging system while placed in a stereotaxic apparatus and implanted with vertical dialysis probes (1.5 or 3 mm dialyzing portion for NAc or mPFC, respectively) in the NAc shell (A + 2.2, L + 1.0 from bregma, V-7.8 from dura) or core (A + 1.4; L + 1.6 from bregma; V-7.6 from dura) or in the mPFC (A + 3.7, L + 0.8 from bregma, V-5.0 from dura), according to the rat brain atlas ([Paxinos and Watson, 1998]).
On the day following surgery, probes were perfused with Ringer’s solution (147 mM NaCl, 4 mM KCl, 2.2 mM CaCl2) at a constant rate of 1 μL/min. Dialyzate samples (10 μL) were injected into an HPLC equipped with a reverse-phase column (C8 3.5 μm, Waters, United States) and a coulometric detector (ESA, Coulochem II) to quantify DA. The first electrode of the detector was set at + 130 mV (oxidation), and the second at −175 mV (reduction). The composition of the mobile phase was: 50 mM NaH2PO4, 0.1 mM Na2-EDTA, 0.5 mM n-octyl sodium sulfate, 15% (v/v) methanol, pH 5.5. The sensitivity of the assay for DA was 5 fmol/sample. At the end of the experiment, animals were sacrificed and their brains removed and stored in formalin (8%) for histological examination to verify the correct placement of the microdialysis probe.

In a further data set the test system is rats. Description: Cardiorespiratory analysis (heart rate, breath rate, SpO2). The data set is classed as in vivo. From the text:
During the experiment, the rat was allowed to freely move in a cage (40 × 40 × 30 cm) with no access to food and water while being monitored by the sensor collar through MouseOx Plus (STARR Life Sciences® Corp., Oakmont, PA, United States) software. In the first hour of acclimation, a fake collar similar to the real one used in the test but with no sensor was used to minimize the potential stress during the experiment. Then, the real collar (with sensor) was replaced, and baseline parameters were monitored for 60 min.

[2] abbreviates: AKB48 highest dose (3 mg/kg), after 60 min from injection.

Where two headings read alike, the source gives them in different places.

On to `CCCCCn1nc(C(=O)NC23CC4CC(CC(C4)C2)C3)c2ccccc21` [AKB48, N-(1-adamantyl)-1-pentyl-1H-indazole-3-carboxamide], for which, in the data set on hepatocyte model, the “number of major metabolites” value is reported as 11. The “plasma concentration versus dose” value in data set [1] (0.1–3.0 mg/kg i.p.) is listed as “rising linearly”. In data set [1] (for the following 120 min), the “plasmatic concentrations after the peak” value is “remained quite stable”. For the same compound, the Tmax in data set [1] (higher doses (0.5 and 3.0 mg/kg i.p.)) was 60 min. For the same compound, the Tmax in data set [1] (low doses (0.1 and 0.3 mg/kg i.p.)) is 30 min. Further, in the data set on extracellular DA levels (AKB48 0.25 mg/kg i.p.), the “DA levels in the NAc shell” value is given as “increased”. The “max increase of DA in the NAc shell” value with extracellular DA levels (AKB48 0.25 mg/kg ip, at 20 and 40 min) is on record as “about 40%”. In the data set with extracellular DA levels (AKB48 0.125 and 0.25 mg/kg i.p.), the “DA levels in the mPFC” value is “No significant effects”. For the same compound, the “DA levels in the NAc shell” value in the data set with extracellular DA levels (AKB48 lower or higher doses (0.125 and 0.5 mg/kg i.p.)) is on record as “ineffective”. Also, in the data set on rats (AKB48 3.0 mg/kg i.p.), the “duration of the heart rate decrease” value is listed as “about 90 min” and the “time at which the heart rate effect disappeared” value stood at 180 min. Further, the “reduction of heart rate” value in the data set with rats (AKB48 3.0 mg/kg i.p., after 30 min from injection) is approximately 36%. Moreover, in the data set with rats (AKB48 highest dose (3 mg/kg)), the “time at which the SpO2 effect disappeared” value stood at 120 min and the “time at which the breath rate effect disappeared” value is reported as 120 min. For the same compound, in the data set with rats (setting [2]), the “reduction of SpO2 saturation” value was approximately 10% and the “reduction of breath rate” value was approximately 30%.
